Experimental data published in the supplement of paper PMC4862054.

What follows are compounds tested on DU-4475 (assay: normalised response (% of control), CellTiter-Glo; higher = more viable cells (100 = DMSO, 0 = benzethonium chloride kill control)). Conditions: incubation time: 72 h.
Description: (§1)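 DSRT, 72 h incubation, CellTox Green / CellTiter-Glo readout. Signal is normalised to DMSO and benzethonium chloride controls. Value is the normalised response at dose 3.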

SMILES	normalised response [%]
CNCc1ccc(-c2[nH]c3cc(F)cc4c3c2CCNC4=O)cc1 [Rucaparib] (100 nM)	97.2

Each compound was assayed on BT-549 in the same assay as above. Conditions: incubation time: 72 h.
Description: as §1

SMILES	normalised response [%]
CNCc1ccc(-c2[nH]c3cc(F)cc4c3c2CCNC4=O)cc1 [Rucaparib] (100 nM)	106

Each compound was assayed on CAL-148 in the same assay as above. Conditions: incubation time: 72 h.
Description: as §1

SMILES	normalised response [%]
CNCc1ccc(-c2[nH]c3cc(F)cc4c3c2CCNC4=O)cc1 [Rucaparib] (100 nM)	86

These compounds were tested on CAL-120 in the same assay as above. Conditions: incubation time: 72 h.
Description: as §1

SMILES	normalised response [%]
CNCc1ccc(-c2[nH]c3cc(F)cc4c3c2CCNC4=O)cc1 [Rucaparib] (100 nM)	92.8

What follows are compounds tested on CAL-85-1 in the same assay as above. Conditions: incubation time: 72 h.
Description: as §1

SMILES	normalised response [%]
CNCc1ccc(-c2[nH]c3cc(F)cc4c3c2CCNC4=O)cc1 [Rucaparib] (100 nM)	99.1

Each compound was assayed on MCF-10A in the same assay as above. Conditions: incubation time: 72 h.
Description: as §1

SMILES	normalised response [%]
CNCc1ccc(-c2[nH]c3cc(F)cc4c3c2CCNC4=O)cc1 [Rucaparib] (100 nM)	93.6

The compounds below were run on CAL-51 in the same assay as above. Conditions: incubation time: 72 h.
Description: as §1

SMILES	normalised response [%]
CNCc1ccc(-c2[nH]c3cc(F)cc4c3c2CCNC4=O)cc1 [Rucaparib] (100 nM)	84.1

The compounds below were run on HCC1937 in the same assay as above. Conditions: incubation time: 72 h.
Description: as §1

SMILES	normalised response [%]
CNCc1ccc(-c2[nH]c3cc(F)cc4c3c2CCNC4=O)cc1 [Rucaparib] (100 nM)	99.2

The compounds below were run on MDA-MB-468 in the same assay as above. Conditions: incubation time: 72 h.
Description: as §1

SMILES	normalised response [%]
CNCc1ccc(-c2[nH]c3cc(F)cc4c3c2CCNC4=O)cc1 [Rucaparib] (100 nM)	104

These compounds were tested on MFM-223 in the same assay as above. Conditions: incubation time: 72 h.
Description: as §1

SMILES	normalised response [%]
CNCc1ccc(-c2[nH]c3cc(F)cc4c3c2CCNC4=O)cc1 [Rucaparib] (100 nM)	88.8

These compounds were tested on SK-BR-3 in the same assay as above. Conditions: incubation time: 72 h.
Description: as §1

SMILES	normalised response [%]
CNCc1ccc(-c2[nH]c3cc(F)cc4c3c2CCNC4=O)cc1 [Rucaparib] (100 nM)	90

What follows are compounds tested on MDA-MB-231 in the same assay as above. Conditions: incubation time: 72 h.
Description: as §1

SMILES	normalised response [%]
CNCc1ccc(-c2[nH]c3cc(F)cc4c3c2CCNC4=O)cc1 [Rucaparib] (100 nM)	99.2

Each compound was assayed on Hs578T in the same assay as above. Conditions: incubation time: 72 h.
Description: as §1

SMILES	normalised response [%]
CNCc1ccc(-c2[nH]c3cc(F)cc4c3c2CCNC4=O)cc1 [Rucaparib] (100 nM)	99.8

What follows are compounds tested on HCC1599 in the same assay as above. Conditions: incubation time: 72 h.
Description: as §1

SMILES	normalised response [%]
CNCc1ccc(-c2[nH]c3cc(F)cc4c3c2CCNC4=O)cc1 [Rucaparib] (100 nM)	109

What follows are compounds tested on HDQ-P1 in the same assay as above. Conditions: incubation time: 72 h.
Description: as §1

SMILES	normalised response [%]
CNCc1ccc(-c2[nH]c3cc(F)cc4c3c2CCNC4=O)cc1 [Rucaparib] (100 nM)	98.3

What follows are compounds tested on HCC1143 in the same assay as above. Conditions: incubation time: 72 h.
Description: as §1

SMILES	normalised response [%]
CNCc1ccc(-c2[nH]c3cc(F)cc4c3c2CCNC4=O)cc1 [Rucaparib] (100 nM)	99.3

These compounds were tested on MDA-MB-453 in the same assay as above. Conditions: incubation time: 72 h.
Description: as §1

SMILES	normalised response [%]
CNCc1ccc(-c2[nH]c3cc(F)cc4c3c2CCNC4=O)cc1 [Rucaparib] (100 nM)	91.3

These compounds were tested on MDA-MB-436 in the same assay as above. Conditions: incubation time: 72 h.
Description: as §1

SMILES	normalised response [%]
CNCc1ccc(-c2[nH]c3cc(F)cc4c3c2CCNC4=O)cc1 [Rucaparib] (100 nM)	90.6

What follows are compounds tested on BT-474 in the same assay as above. Conditions: incubation time: 72 h.
Description: as §1

SMILES	normalised response [%]
CNCc1ccc(-c2[nH]c3cc(F)cc4c3c2CCNC4=O)cc1 [Rucaparib] (100 nM)	93

Test system: DU-4475
Assay: normalised response (% of control), CellTiter-Glo; higher = more viable cells (100 = DMSO, 0 = benzethonium chloride kill control)
Conditions: incubation time: 72 h
Remark: another data set of the same source
Method in brief: (§2)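 Every value is a normalised signal taken at one concentration of a dilution series. Compound was placed in 384-well plates at 5 concentrations in 10-fold steps over a compound-specific 10,000-fold range, and 20 µl of breast cancer cell suspension was seeded onto it. After 72 h, CellTox Green fluorescence (485/520 nm) was measured first and CellTiter-Glo luminescence second, following 10 min at room temperature. Each plate was scaled to 0.1 % DMSO (100) and a positive kill control (0).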

SMILES	normalised response [%]
CC(C)Cn1cnc2c(N)nc3ccccc3c21 [Imiquimod] (250 nM)	103
O=C(CCCCCCC(=O)Nc1ccc([C@H]2O[C@@H](CSc3nc(-c4ccccc4)c(-c4ccccc4)o3)C[C@@H](c3ccc(CO)cc3)O2)cc1)NO [Tubacin] (1000 nM)	91.9
COc1cc2ncnc(Nc3ccc(F)c(Cl)c3)c2cc1NC(=O)/C=C/CN1CCCCC1 [Dacomitinib] (100 nM)	96.2
CS(=O)(=O)c1ccc(C2=C(c3ccccc3)C(=O)OC2)cc1 [Rofecoxib] (1000 nM)	98.8

Test system: BT-549
Assay: as above
Conditions: incubation time: 72 h
Remark: another data set of the same source
Method in brief: as §2

SMILES	normalised response [%]
CC(C)Cn1cnc2c(N)nc3ccccc3c21 [Imiquimod] (250 nM)	105
O=C(CCCCCCC(=O)Nc1ccc([C@H]2O[C@@H](CSc3nc(-c4ccccc4)c(-c4ccccc4)o3)C[C@@H](c3ccc(CO)cc3)O2)cc1)NO [Tubacin] (1000 nM)	89.3
COc1cc2ncnc(Nc3ccc(F)c(Cl)c3)c2cc1NC(=O)/C=C/CN1CCCCC1 [Dacomitinib] (100 nM)	95.4
CS(=O)(=O)c1ccc(C2=C(c3ccccc3)C(=O)OC2)cc1 [Rofecoxib] (1000 nM)	95.4

Test system: CAL-148
Assay: as above
Conditions: incubation time: 72 h
Remark: another data set of the same source
Method in brief: as §2

SMILES	normalised response [%]
CC(C)Cn1cnc2c(N)nc3ccccc3c21 [Imiquimod] (250 nM)	98
O=C(CCCCCCC(=O)Nc1ccc([C@H]2O[C@@H](CSc3nc(-c4ccccc4)c(-c4ccccc4)o3)C[C@@H](c3ccc(CO)cc3)O2)cc1)NO [Tubacin] (1000 nM)	95.4
COc1cc2ncnc(Nc3ccc(F)c(Cl)c3)c2cc1NC(=O)/C=C/CN1CCCCC1 [Dacomitinib] (100 nM)	82
CS(=O)(=O)c1ccc(C2=C(c3ccccc3)C(=O)OC2)cc1 [Rofecoxib] (1000 nM)	102

Test system: CAL-120
Assay: as above
Conditions: incubation time: 72 h
Remark: another data set of the same source
Method in brief: as §2

SMILES	normalised response [%]
CC(C)Cn1cnc2c(N)nc3ccccc3c21 [Imiquimod] (250 nM)	95
O=C(CCCCCCC(=O)Nc1ccc([C@H]2O[C@@H](CSc3nc(-c4ccccc4)c(-c4ccccc4)o3)C[C@@H](c3ccc(CO)cc3)O2)cc1)NO [Tubacin] (1000 nM)	88.6
COc1cc2ncnc(Nc3ccc(F)c(Cl)c3)c2cc1NC(=O)/C=C/CN1CCCCC1 [Dacomitinib] (100 nM)	99.7
CS(=O)(=O)c1ccc(C2=C(c3ccccc3)C(=O)OC2)cc1 [Rofecoxib] (1000 nM)	103

Test system: CAL-85-1
Assay: as above
Conditions: incubation time: 72 h
Remark: another data set of the same source
Method in brief: as §2

SMILES	normalised response [%]
CC(C)Cn1cnc2c(N)nc3ccccc3c21 [Imiquimod] (250 nM)	97.5
O=C(CCCCCCC(=O)Nc1ccc([C@H]2O[C@@H](CSc3nc(-c4ccccc4)c(-c4ccccc4)o3)C[C@@H](c3ccc(CO)cc3)O2)cc1)NO [Tubacin] (1000 nM)	72.2
COc1cc2ncnc(Nc3ccc(F)c(Cl)c3)c2cc1NC(=O)/C=C/CN1CCCCC1 [Dacomitinib] (100 nM)	61
CS(=O)(=O)c1ccc(C2=C(c3ccccc3)C(=O)OC2)cc1 [Rofecoxib] (1000 nM)	103

Test system: MCF-10A
Assay: as above
Conditions: incubation time: 72 h
Remark: another data set of the same source
Method in brief: as §2

SMILES	normalised response [%]
CC(C)Cn1cnc2c(N)nc3ccccc3c21 [Imiquimod] (250 nM)	104
O=C(CCCCCCC(=O)Nc1ccc([C@H]2O[C@@H](CSc3nc(-c4ccccc4)c(-c4ccccc4)o3)C[C@@H](c3ccc(CO)cc3)O2)cc1)NO [Tubacin] (1000 nM)	105
COc1cc2ncnc(Nc3ccc(F)c(Cl)c3)c2cc1NC(=O)/C=C/CN1CCCCC1 [Dacomitinib] (100 nM)	38.9
CS(=O)(=O)c1ccc(C2=C(c3ccccc3)C(=O)OC2)cc1 [Rofecoxib] (1000 nM)	122

Test system: CAL-51
Assay: as above
Conditions: incubation time: 72 h
Remark: another data set of the same source
Method in brief: as §2

SMILES	normalised response [%]
CC(C)Cn1cnc2c(N)nc3ccccc3c21 [Imiquimod] (250 nM)	99
O=C(CCCCCCC(=O)Nc1ccc([C@H]2O[C@@H](CSc3nc(-c4ccccc4)c(-c4ccccc4)o3)C[C@@H](c3ccc(CO)cc3)O2)cc1)NO [Tubacin] (1000 nM)	77.8
